Where a name gives a salt, the structure may show the parent alone.
Tests used:
σ1-receptor = σ1-receptor (Cavia porcellus, UniProt Q60492); experiment: σ1-receptor binding assay, [3H](+)-pentazocine, brain membranes; settings: [3H](+)-pentazocine 0.5 nM, guinea pig brain membranes; for % Binding σ1 10^−7M: compound 10^−7M; for % Binding σ1 10^−8M: compound 10^−8M
Experimental: Brain membrane preparation and binding assays for the σ1-receptor were performed as described (DeHaven-Hudkins et al., 1992) with some modifications. In brief, guinea pig brains were homogenized in 10 vols. (w/v) of Tris-HCl 50 mM 0.32 M sucrose, pH 7.4, with a Kinematica Polytron PT 3000 at 15000 r.p.m. for 30 s. The homogenate was centrifuged at 1000 g for 10 min at 4° C. and the supernatants collected and centrifuged again at 48000 g for 15 min at 4° C. The pellet was resuspended in 10 volumes of Tris-HCl buffer (50 mM, pH 7.4), incubated at 37° C. for 30 min, and centrifuged at 48000 g for 20 min at 4° C. Following this, the pellet was resuspended in fresh Tris-HCl buffer (50 mM, pH 7.4) and stored on ice until use.
Each assay tube contained 10 μL of [^3H](+)-pentazocine (final concentration of 0.5 nM), 900 μL of the tissue suspension to a final assay volume of 1 mL and a final tissue concentration of approximately 30 mg tissue net weight/mL. […] All tubes were incubated at 37° C. for 150 min before termination of the reaction by rapid filtration over Schleicher & Schuell GF 3362 glass fibre filters [previously soaked in a solution of 0.5% polyethylenimine for at least 1 h]. Filters were then washed with four times with 4 mL of cold Tris-HCl buffer (50 mM, pH 7.4). Following addition of scintillation cocktail, the samples were allowed to equilibrate overnight. The amount of bound radioactivity was determined by liquid scintillation spectrometry using a Wallac Winspectral 1414 liquid scintillation counter.

[1] = cited from earlier work
sigma (σ-2) site = sigma (σ-2) site (Homo sapiens, UniProt Q5BJF2); settings: cited from earlier work
sigma 1 (σ-1) site = sigma 1 (σ-1) site (Homo sapiens, UniProt Q99720); settings: cited from earlier work
sigma 1 (σ-1) site, sequence (Q99720 whole entry): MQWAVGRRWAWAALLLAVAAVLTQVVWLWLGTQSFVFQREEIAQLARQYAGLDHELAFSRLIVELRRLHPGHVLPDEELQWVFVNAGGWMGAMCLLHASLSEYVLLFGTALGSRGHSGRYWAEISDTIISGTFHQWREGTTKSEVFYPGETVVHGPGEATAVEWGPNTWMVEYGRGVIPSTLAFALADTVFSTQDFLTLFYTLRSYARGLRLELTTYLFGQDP

σ1-receptor, sequence (Q60492 whole entry): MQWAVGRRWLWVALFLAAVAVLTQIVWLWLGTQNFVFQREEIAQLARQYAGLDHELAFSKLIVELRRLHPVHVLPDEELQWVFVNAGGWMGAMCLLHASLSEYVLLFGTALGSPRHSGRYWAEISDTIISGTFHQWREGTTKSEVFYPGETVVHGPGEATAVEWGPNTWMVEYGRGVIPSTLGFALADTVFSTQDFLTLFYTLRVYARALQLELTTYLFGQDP
sigma (σ-2) site, sequence (Q5BJF2 whole entry): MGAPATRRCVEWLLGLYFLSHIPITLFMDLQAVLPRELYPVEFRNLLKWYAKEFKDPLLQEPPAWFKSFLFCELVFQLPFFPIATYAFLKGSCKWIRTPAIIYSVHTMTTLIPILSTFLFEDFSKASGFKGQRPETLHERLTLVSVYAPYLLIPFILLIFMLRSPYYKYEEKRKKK

Compound | melting point [°C] | % Binding σ1 10^−7M (σ1-receptor) [%] | % Binding σ1 10^−8M (σ1-receptor) [%] | also measured
CN1CCN(CC(O)COc2ccn(-c3ccc(Cl)c(Cl)c3)n2)CC1.O=C(O)C(=O)O (stereo not shown) | 189 to 192 |  |  | 
OC(COc1ccn(-c2ccc(Cl)c(Cl)c2)n1)CN1CCOCC1 (stereo not shown) [Example 1, 1-(1-(3,4-dichlorophenyl)-1H-pyrazol-3-yloxy)-3-morpholinopropan-2-ol oxalate] |  | 70.3 | 22.2 | 
O=C(O)C(=O)O.OC(COc1ccn(-c2ccc(Cl)c(Cl)c2)n1)CN1CCCCC1 (stereo not shown) [Example 2, 1-(1-(3,4-dichlorophenyl)-1H-pyrazol-3-yloxy)-3-(piperidin-1-yl)propan-2-ol oxalate] | 116 to 119 | 72.2 | 4.2 | 
O=C(O)C(=O)O.OC(COc1ccn(-c2ccc(Cl)c(Cl)c2)n1)CN1CCCC1 (stereo not shown) [Example 3, 1-(1-(3,4-dichlorophenyl)-1H-pyrazol-3-yloxy)-3-(pyrrolidin-1-yl)propan-2-ol oxalate] |  | 55.9 | 32.6 | 
Clc1ccc(-n2ccc(OCCOCCN3CCCCC3)n2)cc1Cl [Example 6, 1-(2-(2-(1-(3,4-dichlorophenyl)-1H-pyrazol-3-yloxy)ethoxy)ethyl)piperidine] |  | 82.8 | 23.7 | 
Clc1ccc(-n2ccc(OCCOCCN3CCOCC3)n2)cc1Cl.O=C(O)C(=O)O [Example 7, 4-(2-(2-(1-(3,4-dichlorophenyl)-1H-pyrazol-3-yloxy)ethoxy)ethyl)morpholine oxalate] | 154 to 156 | 61.6 | 25.8 | 
C[C@@H]1CN(CCCn2c3ccccc3c3ccccc32)C[C@H](C)N1 [rimcazole] |  |  |  | clinical effects in the treatment of psychosis [1]: shows effects in the treatment of psychosis
SKF 10047 |  |  |  | affinity for the sigma (σ-2) site (sigma (σ-2) site): micromolar affinity; affinity for the sigma 1 (σ-1) site (sigma 1 (σ-1) site): nanomolar affinity

— US8138186B2, “Pyrazole derivatives as sigma receptors antagonists” (Laboratorios Del Dr. Esteve, S.A., priority 2006, dated 2012)
